{
  "source": "paper PMC10285648",
  "about": "“iTAG an optimized IMiD-induced degron for targeted protein degradation in human and murine cells” (iScience, 2023)",
  "key": {"CT26 cells": {"tested_on": "CT26 cells", "test": "Quantitative multiplexed proteomics of CT26 cells treated with thalidomide derivatives", "type": "cell-based, mouse", "settings": "24h", "method": "After showing that iTAG was active in mouse cells, we explored whether more potential degrons were active in the murine context. […]2216[50] and profiled the cellular proteomes using quantitative multiplexed proteomics. […] Data are plotted as Log2 fold change relative to DMSO versus Log10 of p value. (B) Proteome of CT26 CRBN KO cells treated with 10uM of FPFT2216 for 24h analyzed and plotted as in (A). (C) HEK293T, CT26, AT3 and 4434 cells treated with 10uM of FPFT2216 for 24h in presence of absence of MLN4924. […] were analyzed using western blotting. (D) Structural representation of PDE6D with the critical […] highlighted in red. (E) CT26, AT3 and 4434 cells transiently expressing WT or […] mutant Flag-PDE6D treated with 10uM of FPFT2216 for 16h. (F) Docking model for FPFT-2216 (in magenta) in the binding site of mouse CRBN (in orange). H-bond interactions are shown as cyan dashes. (G) Binding model for the ternary complex formed by mouse CRBN (in orange), mouse PDE6D (in cyan) and FPFT-2216 (in magenta), showing the […] loop close to the molecular glue. Samples for quantitative proteomics were prepared using the […] workflow.[60] Briefly, the cell pellets were lysed in a buffer containing 150 μL 0.1 M triethylammonium bicarbonate (TEAB), 1% sodium deoxycholate (SDC), 10% isopropanol, 50mM NaCl, 5 mM tris-2-carboxyethyl phosphine (TCEP), 10 mM iodoacetamide (IAA), universal nuclease, and supplemented with protease and phosphatase inhibitors. Samples were bath sonicated for 5 min, incubated at RT for 45 min and protein concentration was measured with the Bradford Protein Assay (Biorad) according to manufacturer instructions. Aliquots containing 30 μg of total protein were used for protein digestion. The resultant peptides were labeled with a tandem mass tag (TMTpro) multiplex reagent vial (Thermo Scientific) according to the manufacturer instructions. All the TMT-labelled samples were combined in equal amounts to a single tube. The TMT-peptide mixture was acidified with 1% formic acid and the precipitated SDC was removed by centrifugation. The sample was then dried with a centrifugal vacuum concentrator. LC-MS analysis was performed on the Dionex Ultimate 3000 UHPLC system coupled with the Orbitrap Lumos mass spectrometer (Thermo Scientific). Samples were analyzed with the EASY-Spray C18 capillary column (75 μm × 50 cm, 2 μm) at 50°C. […] MS3 quantification was obtained with higher-energy collisional dissociation (HCD) fragmentation of the top 5 most abundant CID fragments isolated with synchronous precursor selection (SPS). […] The SEQUEST-HT search engine was used to analyze the acquired mass spectra in Proteome Discoverer 2.4 (Thermo Scientific) for protein identification and quantification. […]"}, "PDE6D": {"target": "T1, PDE6D (Mus musculus, UniProt O55057+Q8C7D2)", "T1 construct": "endogenous in cells; host or cells: AT3, 4434, CT26 (mouse); HEK293T run as human control", "T1 sequence (O55057 whole entry)": "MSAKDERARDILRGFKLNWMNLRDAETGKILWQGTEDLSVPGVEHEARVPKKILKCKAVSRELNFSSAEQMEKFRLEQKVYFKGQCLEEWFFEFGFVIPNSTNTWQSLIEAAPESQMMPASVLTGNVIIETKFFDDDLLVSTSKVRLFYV", "T1 sequence (Q8C7D2 whole entry)": "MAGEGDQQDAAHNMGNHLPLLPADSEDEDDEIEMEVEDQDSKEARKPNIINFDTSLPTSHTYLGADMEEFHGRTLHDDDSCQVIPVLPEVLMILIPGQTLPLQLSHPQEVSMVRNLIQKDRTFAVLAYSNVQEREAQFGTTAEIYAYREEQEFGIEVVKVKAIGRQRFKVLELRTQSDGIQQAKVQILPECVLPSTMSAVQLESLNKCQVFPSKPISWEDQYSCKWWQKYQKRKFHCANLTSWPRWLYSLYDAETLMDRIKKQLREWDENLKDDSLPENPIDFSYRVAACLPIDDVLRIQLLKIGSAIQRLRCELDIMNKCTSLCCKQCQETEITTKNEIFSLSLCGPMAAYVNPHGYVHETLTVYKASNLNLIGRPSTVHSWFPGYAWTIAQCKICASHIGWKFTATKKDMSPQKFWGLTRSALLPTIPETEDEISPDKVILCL", "T1 sequence (Q3U1J4 2-1140 partner limits assumed)": "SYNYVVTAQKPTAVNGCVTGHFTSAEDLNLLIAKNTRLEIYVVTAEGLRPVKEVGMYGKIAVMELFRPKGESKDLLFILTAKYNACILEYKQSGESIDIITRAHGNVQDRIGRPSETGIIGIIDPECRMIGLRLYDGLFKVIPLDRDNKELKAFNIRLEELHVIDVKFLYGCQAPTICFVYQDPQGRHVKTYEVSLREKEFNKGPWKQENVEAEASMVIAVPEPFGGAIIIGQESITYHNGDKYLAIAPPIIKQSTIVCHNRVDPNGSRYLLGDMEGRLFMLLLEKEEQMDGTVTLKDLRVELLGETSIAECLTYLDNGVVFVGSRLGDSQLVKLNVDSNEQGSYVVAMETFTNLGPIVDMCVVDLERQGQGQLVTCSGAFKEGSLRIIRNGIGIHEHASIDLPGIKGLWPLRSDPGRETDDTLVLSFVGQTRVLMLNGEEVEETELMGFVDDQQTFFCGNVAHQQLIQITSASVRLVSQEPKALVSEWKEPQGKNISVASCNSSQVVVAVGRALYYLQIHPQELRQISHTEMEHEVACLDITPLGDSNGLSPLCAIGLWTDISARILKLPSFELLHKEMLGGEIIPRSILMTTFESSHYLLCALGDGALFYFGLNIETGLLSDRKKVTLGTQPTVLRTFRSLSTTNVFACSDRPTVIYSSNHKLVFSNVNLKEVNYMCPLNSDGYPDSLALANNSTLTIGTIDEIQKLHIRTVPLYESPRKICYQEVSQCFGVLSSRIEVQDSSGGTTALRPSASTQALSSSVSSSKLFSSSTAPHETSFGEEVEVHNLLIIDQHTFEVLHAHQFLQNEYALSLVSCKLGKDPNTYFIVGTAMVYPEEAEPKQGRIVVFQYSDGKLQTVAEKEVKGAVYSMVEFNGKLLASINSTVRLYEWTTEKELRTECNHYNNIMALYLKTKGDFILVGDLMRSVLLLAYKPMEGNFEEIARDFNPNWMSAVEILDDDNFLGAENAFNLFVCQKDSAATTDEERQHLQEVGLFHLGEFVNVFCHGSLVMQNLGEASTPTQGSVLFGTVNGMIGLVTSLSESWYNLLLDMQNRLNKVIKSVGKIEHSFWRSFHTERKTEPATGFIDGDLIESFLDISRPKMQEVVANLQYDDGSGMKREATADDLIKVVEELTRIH", "test": "Western blot validation of PDE6D degradation", "type": "cell-based", "settings": "AT3, 4434 and CT26, 10uM, 24h, western blotting", "method": "(§1) Figure 6 FPFT2216 induces the degradation of PDE6D in murine cells (A) Proteomes of CT26 cells treated with 10uM of the indicated compounds for 24h and analyzed using quantitative proteomics. Data are plotted as Log2 fold change relative to DMSO versus Log10 of p value. (B) Proteome of CT26 CRBN KO cells treated with 10uM of FPFT2216 for 24h analyzed and plotted as in (A). (C) HEK293T, CT26, AT3 and 4434 cells treated with 10uM of FPFT2216 for 24h in presence of absence of MLN4924. Lysats were analyzed using western blotting. (D) Structural representation of PDE6D with the critical Glycine 28 highlighted in red. (E) CT26, AT3 and 4434 cells transiently expressing WT or G28N mutant Flag-PDE6D treated with 10uM of FPFT2216 for 16h. (F) Docking model for FPFT-2216 (in magenta) in the binding site of mouse CRBN (in orange). H-bond interactions are shown as cyan dashes. (G) Binding model for the ternary complex formed by mouse CRBN (in orange), mouse PDE6D (in cyan) and FPFT-2216 (in magenta), showing the Gly28 loop close to the molecular glue.\n(§2) Cells were lysed with SDS lysis buffer (2% SDS, 10% Glycerol, 50mM Tris pH 6.8) and boiled at 95°C for 30min. Protein concentration was measured using Pierce BCA Protein Assay Kit (ThermoFischer) following manufacturer’s recommendations. […]"}, "Flag-PDE6D G28N mutant": {"target": "T2, Flag-PDE6D G28N mutant (Mus musculus, UniProt O55057, G28N)", "T2 construct": "expressed in transfected cells; host or cells: CT26, AT3 and 4434 murine cells, transient", "T2 sequence (Q8C7D2 whole entry partner)": "as the sequence (Q8C7D2 whole entry) above", "T2 sequence (Q3U1J4 2-1140 partner limits assumed)": "as the sequence (Q3U1J4 2-1140 partner limits assumed) above", "T2 sequence (O55057 whole entry G28N)": "as the sequence (O55057 whole entry) above, with G28N counted along it", "test": "Degradation of WT or G28N mutant Flag-PDE6D in murine cells", "type": "cell-based", "settings": "CT26, AT3 and 4434, 10uM, 16h", "method": "as §1\nAfter validating PDE6D degradation, we progressed to identify the critical degron site on the protein. We hypothesized that PDE6D binding to CRBN would require a Gly loop motif and used known structural features of IMiD degrons to map this site in PDE6D (see STAR Methods for details). […]"}, "CK1α": {"tested_on": "CK1α", "test": "Western blot validation of CK1α degradation", "type": "cell-based, human, mouse", "settings": "HEK293T versus AT3, 4434, CT26, 10uM, 24h, western blotting", "method": "as §1, §2"}},
  "data": [
    {"smiles": "COc1cscc1-c1cn(C2CCC(=O)NC2=O)nn1", "note": "(centres unmarked) [FPFT2216]", "values": [
      {"measurement": "effect on cellular proteome", "setting": "CT26 cells; CT26, 10uM", "value": "strong downregulation of PDE6D, Rab28 and to a much lesser extent CK1α"},
      {"measurement": "CRBN dependence of proteome effects", "setting": "CT26 cells; CT26 CRBN KO cells, 10uM", "value": "CRBN dependent"},
      {"measurement": "degradation of PDE6D", "setting": "PDE6D", "value": "induced the degradation of PDE6D"},
      {"measurement": "degradation of G28N mutant PDE6D", "setting": "Flag-PDE6D G28N mutant", "value": "not degraded"},
      {"measurement": "degradation of CK1α", "setting": "CK1α", "value": "only degraded in human cells"}
    ]}
  ]
}
